This passage reports IC50 results from patent US20250154105A1, “POLYCYCLIC COMPOUND AND USE THEREOF” (TYK MEDICINES, INC., priority 2021, published 2025).

SMILES strings stand for the structures.

For test [1], the system named is human pleural mesothelioma cells NCI-H226. As to the kind of experiment: Cell anti-proliferation experiment (CCK8), NCI-H226. In kind it is cell-based. An outline of the steps:
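Viability was measured by CCK-8 (3 h, A450) after 3-day treatment with 0.15–333.33 nM compound in 0.1% DMSO medium. Curve-fitted IC50 was based on viability normalised to no-drug and cell-free controls.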

A further test has as its system YAP-TEAD. As to the kind of experiment: YAP-TEAD inhibitor activity by Nano luciferase method (8xGTiiC-nLuc reporter in 293T cells). In kind it is cell-based. The following applies: Homo sapiens, HEK-293T, 48 hours incubation, read-out: Nano-luciferase detection (IC50). Put shortly: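 IC50 derived from nLuc reporter signal normalised to 0 nM wells, after 48 h, 37 °C compound exposure (1:3.16 series, highest 10,000 nM). Cells: 293T transfected with 8xGTiiC-nLuc/CMV-fLuc plasmid, plated at 2000 per well.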

As a reminder, the IC50 is the concentration that gives 50% inhibition. Turning to `Cn1cc2c(=O)n(-c3ccc(C(F)(F)F)cc3)c3ccc(C(=O)N[C@@H](c4ccccc4)c4ccccn4)cc3c2n1` [Example T-142], the IC50 (in test [1]; in the test with YAP-TEAD) was 1000 to 5000 nM throughout.
`COc1ccnc([C@H](C)NC(=O)c2ccc3c(c2)c2nn(C)cc2c(=O)n3-c2ccc(C(F)(F)F)cc2)c1` [Example T-143]: the IC50 (in test [1]; in the test on YAP-TEAD) was 1000 to 5000 nM each time.
Turning to `C[C@H](NC(=O)c1ccc2c(c1)c1nn(C)cc1c(=O)n2-c1ccc(C(F)(F)F)cc1)c1ccc(F)cn1` [Example T-144], the IC50 (in test [1]; in the test on YAP-TEAD) was 1000 to 5000 nM each time.
Take `Cc1cccnc1[C@H](C)NC(=O)c1ccc2c(c1)c1nn(C)cc1c(=O)n2-c1ccc(C(F)(F)F)cc1` [Example T-145]: the IC50 (in test [1]; in the test on YAP-TEAD) was no more than 1000 nM throughout.
As to `C[C@H](NC(=O)c1ccc2c(c1)c1nn(C)cc1c(=O)n2-c1ccc(C(F)(F)F)cc1)c1cccnc1` [Example T-146], the IC50 (in test [1]; in the test with YAP-TEAD) was 1000 to 5000 nM each time.
Take `C[C@H](NC(=O)c1ccc2c(c1)c1nn(C)cc1c(=O)n2-c1ccc(C(F)(F)F)cc1)c1cccc(N)n1` [Example T-148]: the IC50 (in test [1]; in the test with YAP-TEAD) was no more than 1000 nM throughout.
On to `CNc1cccc([C@H](C)NC(=O)c2ccc3c(c2)c2nn(C)cc2c(=O)n3-c2ccc(C(F)(F)F)cc2)n1` [Example T-149], for which the IC50 (in test [1]; with YAP-TEAD) was no more than 1000 nM in each case.
As for `C[C@H](NC(=O)c1ccc2c(c1)c1nn(C)cc1c(=O)n2-c1ccc(C(F)(F)F)cc1)c1cccc(N(C)C)n1` [Example T-150], the IC50 (in test [1]; with YAP-TEAD) was no more than 1000 nM in each case.
Consider `Cc1cccc([C@H](C)NC(=O)c2ccc3c(c2)c2nn(C)cc2c(=O)n3-c2ccc(C(F)(F)F)cc2)n1` [Example T-151], for which the IC50 (in test [1]; in the test on YAP-TEAD) was no more than 1000 nM in each case.
Regarding `C[C@H](NC(=O)c1ccc2c(c1)c1nn(C)cc1c(=O)n2-c1ccc(C(F)(F)F)cc1)c1cccc(C#N)n1` [Example T-152], the IC50 (in test [1]; with YAP-TEAD) was no more than 1000 nM throughout.
For the compound `C[C@H](NC(=O)c1ccc2c(c1)c1nn(C)cc1c(=O)n2-c1ccc(C(F)(F)F)cc1)c1cccc(F)n1` [Example T-153], the IC50 (in test [1]; with YAP-TEAD) was no more than 1000 nM throughout.
For the compound `C[C@H](NS(=O)(=O)c1ccc2c(c1)c1nn(C)cc1c(=O)n2-c1ccc(C(F)(F)F)cc1)c1ccccc1` [Example T-165], the IC50 (in test [1]; in the test on YAP-TEAD) was 1000 to 5000 nM throughout.
`C[C@H](NS(=O)(=O)c1ccc2c(c1)c1nn(C)cc1c(=O)n2-c1ccc(S(F)(F)(F)(F)F)cc1)c1ccccn1` [Example T-166]: the IC50 (in test [1]; with YAP-TEAD) was 1000 to 5000 nM in each case.
Take `C[C@H](NS(=O)(=O)c1ccc2c(c1)c1nn(C)cc1c(=O)n2-c1ccc(OC(F)(F)F)cc1)c1ccccn1` [Example T-167]: the IC50 (in test [1]; with YAP-TEAD) was 1000 to 5000 nM throughout.
Take `C[C@@H](C(=O)Nc1ccc2c(c1)c1nn(C)cc1c(=O)n2-c1ccc(C(F)(F)F)cc1)c1ccccn1` [Example T-168]: the IC50 (in test [1]; with YAP-TEAD) was 1000 to 5000 nM throughout.
In the case of `C[C@H](C(=O)Nc1ccc2c(c1)c1nn(C)cc1c(=O)n2-c1ccc(C(F)(F)F)cc1)c1ccccn1` [Example T-169], the IC50 (in test [1]; with YAP-TEAD) was 1000 to 5000 nM in each case.
With `Cn1cc2c(=O)n(-c3ccc(C(F)(F)F)cc3)c3ccc(NC(=O)c4ccccn4)cc3c2n1` [Example T-170], the IC50 (in test [1]; with YAP-TEAD) was no more than 1000 nM in each case.
Turning to `Cn1cc2c(=O)n(-c3ccc(C(F)(F)F)cc3)c3ccc(NC(=O)c4ccccc4)cc3c2n1` [Example T-171], the IC50 (in test [1]; in the test on YAP-TEAD) was no more than 1000 nM throughout.
As to `C=CC(=O)Nc1ccc2c(c1)c1nn(C)cc1c(=O)n2-c1ccc(C(F)(F)F)cc1` [Example T-172], the IC50 (in test [1]; in the test on YAP-TEAD) was no more than 1000 nM throughout.
Turning to `Cn1cc2c(=O)n(-c3ccc(C(F)(F)F)cc3)c3ccc(NC(=O)CCCCl)cc3c2n1` [Example T-173], the IC50 (in test [1]; with YAP-TEAD) was 1000 to 5000 nM throughout.
